# Measurements: ChEMBL document CHEMBL1123832, “Structure-activity relationships in an imidazole-based series of thromboxane synthase inhibitors” (J Med Chem, 1987)
# Target: T1, Thromboxane-A synthase (Homo sapiens, UniProt P24557)
# T1 sequence (P24557 whole entry): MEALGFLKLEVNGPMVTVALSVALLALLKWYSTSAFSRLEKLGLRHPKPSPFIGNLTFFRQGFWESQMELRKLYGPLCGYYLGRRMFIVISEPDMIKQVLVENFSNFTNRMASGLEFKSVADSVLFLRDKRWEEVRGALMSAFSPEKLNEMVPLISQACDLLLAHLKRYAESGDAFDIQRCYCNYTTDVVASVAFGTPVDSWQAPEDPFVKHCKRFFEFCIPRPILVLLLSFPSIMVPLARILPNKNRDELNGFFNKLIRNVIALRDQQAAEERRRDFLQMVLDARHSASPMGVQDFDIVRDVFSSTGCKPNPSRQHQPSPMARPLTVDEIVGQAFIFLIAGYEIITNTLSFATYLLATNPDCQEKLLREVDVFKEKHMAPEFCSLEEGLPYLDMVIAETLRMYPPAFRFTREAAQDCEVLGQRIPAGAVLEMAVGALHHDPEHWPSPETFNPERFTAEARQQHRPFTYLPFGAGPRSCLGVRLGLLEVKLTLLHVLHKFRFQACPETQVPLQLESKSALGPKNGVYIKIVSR
# Test: Compound was tested for inhibitory activity against human platelet microsomal TXA2 synthase
row,IC50,Compound
1,1.1 µM,COc1ccc(COCC(Cn2ccnc2)OCc2ccc(C(=O)O)cc2)cc1 (stereo unspecified)
2,7.1 µM,COc1ccc(COCC(Cn2ccnc2)OCc2ccc(C(=O)OCc3ccccc3)cc2)cc1 (stereo unspecified)
3,2 µM,CCCCOC(=O)c1ccc(COC(COCc2ccc(OC)cc2)Cn2ccnc2)cc1 (stereo unspecified)
4,5.3 µM,CCOC(=O)c1ccc(COC(COCc2ccc(OC)cc2)Cn2ccnc2)cc1 (stereo unspecified)

# Target: T1, Thromboxane-A synthase
# Test: Tested for inhibitory activity against intact human platelet TXA2 formation
# Format: functional
row,Compound,IC50
1,CCCOC(=O)c1ccc(COC(COCc2ccc(OC)cc2)Cn2ccnc2)cc1 (stereo unspecified),0.18 µM
2,COc1ccc(COCC(Cn2ccnc2)OCc2ccc(C(=O)Oc3ccccc3)cc2)cc1 (stereo unspecified),0.56 µM
3,COc1ccc(COCC(Cn2ccnc2)OCc2ccc(C(N)=O)cc2)cc1 (stereo unspecified),6 µM
4,COc1ccc(COCC(Cn2ccnc2)OCc2ccc3c(c2)COC3=O)cc1 (stereo unspecified),6.2 µM
5,COc1ccc(COCC(Cn2ccnc2)OCc2ccc(C(=O)O)cc2)cc1 (stereo unspecified),6.7 µM
6,COc1ccc(COCC(Cn2ccnc2)OCc2ccc(C(=O)OC(C)C)cc2)cc1 (stereo unspecified),1.61 µM
7,COc1ccc(COCC(Cn2ccnc2)OCc2ccc(C(=O)OCc3ccccc3)cc2)cc1 (stereo unspecified),1.49 µM
8,CCNC(=O)c1ccc(COC(COCc2ccc(OC)cc2)Cn2ccnc2)cc1 (stereo unspecified),12.4 µM
9,CCCCN(C)C(=O)c1ccc(COC(COCc2ccc(OC)cc2)Cn2ccnc2)cc1 (stereo unspecified),5.4 µM
10,CCCCCCCCOC(=O)c1ccc(COC(COCc2ccc(OC)cc2)Cn2ccnc2)cc1 (stereo unspecified),21 µM
11,CCOC(=O)c1ccc(COCC(Cn2ccnc2)OCc2ccc(C(=O)OCC)cc2)cc1 (stereo unspecified),0.7 µM
12,COc1ccc(COCC(Cn2ccnc2)OCc2ccc(OC)cc2)cc1 (stereo unspecified),9.9 µM
13,COc1ccc(COCC(Cn2ccnc2)OCc2ccc(C(=S)N(C)C)cc2)cc1 (stereo unspecified),12.4 µM
14,CCOC(=O)c1ccc(COC(COCc2ccc(OC)cc2)Cn2ccnc2)cc1 (stereo unspecified),0.54 µM

# Further molecules by falling IC50, results first:
row,IC50,Compound
1,24.9 µM,COc1ccc(COCC(Cn2ccnc2)OCc2ccc(S(C)(=O)=O)cc2)cc1 (stereo unspecified)
2,8.6 µM,COc1ccc(COCC(Cn2ccnc2)OCc2ccc([S+](C)[O-])cc2)cc1 (stereo unspecified)
3,7.2 µM,CCOC(=O)c1cccc(COC(COCc2ccc(OC)cc2)Cn2ccnc2)c1 (stereo unspecified)
4,6.4 µM,COc1ccc(COCC(Cn2ccnc2)OCc2ccc(SC)cc2)cc1 (stereo unspecified)
5,3.6 µM,CCOC(=O)c1ccc(COCC(Cn2ccnc2)OCc2ccc(OC)cc2)cc1 (stereo unspecified)
6,1.94 µM,COc1ccc(COCC(Cn2ccnc2)OCc2ccc(C(=O)N(C)C)cc2)cc1 (stereo unspecified)
7,1.26 µM,COC(=O)c1ccc(COC(COCc2ccc(OC)cc2)Cn2ccnc2)cc1 (stereo unspecified)
8,0.2 µM,CCCCOC(=O)c1ccc(COC(COCc2ccc(OC)cc2)Cn2ccnc2)cc1 (stereo unspecified)
